One may read the inhibition as the drop in the measured response relative to a control, in per cent.

Experimental findings from patent US8063071B2 (GlaxoSmithKline, LLC, priority 2007, dated 2011) are described below.

The target of test [1] is T1, Recombinant human IKKβ (residues 1-737) (Homo sapiens, UniProt O14920).
T1 construct: Recombinant human IKKβ (residues 1-737); GST (C); made in house
T1 sequence (O14920 1-737): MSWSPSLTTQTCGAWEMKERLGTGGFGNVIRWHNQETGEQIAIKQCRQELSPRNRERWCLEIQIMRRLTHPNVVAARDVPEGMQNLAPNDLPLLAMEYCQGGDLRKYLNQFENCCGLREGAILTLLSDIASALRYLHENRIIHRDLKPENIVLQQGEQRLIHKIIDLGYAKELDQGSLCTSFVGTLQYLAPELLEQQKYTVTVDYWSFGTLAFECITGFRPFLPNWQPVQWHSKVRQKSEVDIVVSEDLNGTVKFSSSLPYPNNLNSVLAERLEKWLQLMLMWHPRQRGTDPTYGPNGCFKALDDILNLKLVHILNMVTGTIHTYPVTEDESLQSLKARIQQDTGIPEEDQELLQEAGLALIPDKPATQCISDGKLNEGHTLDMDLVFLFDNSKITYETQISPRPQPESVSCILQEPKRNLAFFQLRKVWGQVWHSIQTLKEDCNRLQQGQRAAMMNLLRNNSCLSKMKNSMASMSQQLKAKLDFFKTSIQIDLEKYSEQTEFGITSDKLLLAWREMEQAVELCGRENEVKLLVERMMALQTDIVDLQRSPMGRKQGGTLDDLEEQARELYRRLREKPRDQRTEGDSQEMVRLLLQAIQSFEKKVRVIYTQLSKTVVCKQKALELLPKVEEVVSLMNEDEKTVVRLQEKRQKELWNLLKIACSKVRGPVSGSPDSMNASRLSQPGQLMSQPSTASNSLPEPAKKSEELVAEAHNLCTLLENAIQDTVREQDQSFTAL
Kind of test: IKK2 assay (TR-FRET). Type of test: biochemical. Conditions: ATP 1 μM final, read-out: pIC50 against IKK2 (converted). In outline: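 Baculovirus-expressed C-terminal GST-tagged IKKβ (0.5-5 nM final) in HEPES pH 7.4, MgCl2, CHAPS, DTT, BSA with 1.7% DMSO; 25 nM GST-IB substrate and 1 μM ATP, 15 min at room temperature. EDTA stop; phospho-Ser32/36 detected by Eu-antibody/APC-anti-GST TR-FRET, 665/620 nm ratio.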
On the technique in general: TR-FRET usually uses a lanthanide donor and a delayed reading to cut background.

Test [2] relates to human monocyte stimulated cytokine production (TNF-α). Kind of test: Monocyte assay (LPS-stimulated TNF-α production). Type of test: cell-based. The conditions noted are these: for IC50: 24 h, 200 ng/mL LPS, TNF-α by ELISA; for inhibition at 0.3 µM: read-out: inhibition at 300 nM in the monocyte assay. The essentials:
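Human CD14+ monocytes were purified from blood and plated at 1×10^6 cells/mL in RPMI 1640 with 10% FBS. Compound was added 30 min before stimulation with 200 ng/mL LPS (0.1% DMSO final), followed by 24 hrs at 37 C. Supernatant TNF-α was measured by ELISA, and viability by trypan blue exclusion.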
Background: An ELISA detects its analyte on a solid surface through an enzyme-linked reagent.

The structures appear in SMILES notation. Where a name gives a salt, the structure may show the parent alone.

Take `CCCC(C)NCc1cccc(-c2cc(C(N)=O)c3[nH]cc(C4CCN(S(=O)(=O)CC)CC4)c3c2)c1` (stereo not shown) [Example 154, 3-[1-(ethylsulfonyl)-4-piperidinyl]-5-(3-{[(1-methylbutyl)amino]methyl}phenyl)-1H-indole-7-carboxamide trifluoroacetate]: the IC50 in test [1] is no more than 10 µM; in test [2], no more than 1.5 µM.

Turning to `CC[C@@H](C)NCc1cccc(-c2cc(C(N)=O)c3[nH]cc(C4CCN(S(=O)(=O)CC)CC4)c3c2)c1` [Example 155, 3-[1-(ethylsulfonyl)-4-piperidinyl]-5-[3-({[(1R)-1-methylpropyl]amino}methyl)phenyl]-1H-indole-7-carboxamide trifluoroacetate], the IC50 in test [1] is no more than 10 µM; in test [2], no more than 1.5 µM.

For `CCS(=O)(=O)N1CCC(c2c[nH]c3c(C(N)=O)cc(-c4cccc(CNCC(C)C)c4)cc23)CC1` [Example 156, 3-[1-(ethylsulfonyl)-4-piperidinyl]-5-(3-{[(2-methylpropyl)amino]methyl}phenyl)-1H-indole-7-carboxamide], the IC50 in test [1] was no more than 10 µM; in test [2], no more than 1.5 µM.

In the case of `CC[C@H](C)NCc1cccc(-c2cc(C(N)=O)c3[nH]cc(C4CCN(S(=O)(=O)CC)CC4)c3c2)c1` [Example 157, 3-[1-(ethylsulfonyl)-4-piperidinyl]-5-[3-({[(1S)-1-methylpropyl]amino}methyl)phenyl]-1H-indole-7-carboxamide acetate], the IC50 was no more than 10 µM in test [1] and no more than 1.5 µM in test [2].

As for `CCS(=O)(=O)N1CCC(c2c[nH]c3c(C(N)=O)cc(-c4ccc(CNC(=O)C5CC5)cc4)cc23)CC1` [Example 158, 5-(4-{[(cyclopropylcarbonyl)amino]methyl}phenyl)-3-[1-(ethylsulfonyl)-4-piperidinyl]-1H-indole-7-carboxamide], the IC50 in test [1] was no more than 10 µM; in test [2], greater than 1 µM.

With `CCS(=O)(=O)N1CCC(c2c[nH]c3c(C(N)=O)cc(-c4ccc(CNC(=O)C5CCC5)cc4)cc23)CC1` [Example 159, 5-(4-{[(cyclobutylcarbonyl)amino]methyl}phenyl)-3-[1-(ethylsulfonyl)-4-piperidinyl]-1H-indole-7-carboxamide], the IC50 in test [1] was no more than 10 µM; in test [2], greater than 1 µM.

For the compound `CCS(=O)(=O)N1CCC(c2c[nH]c3c(C(N)=O)cc(-c4ccc(CNC(=O)Cc5cccs5)cc4)cc23)CC1` [Example 160, 3-[1-(ethylsulfonyl)-4-piperidinyl]-5-(4-{[(2-thienylacetyl)amino]methyl}phenyl)-1H-indole-7-carboxamide], the results for the IC50 in test [1] and in test [2] were no more than 10 µM and no more than 1.5 µM, respectively.

For `CCS(=O)(=O)N1CCC(c2c[nH]c3c(C(N)=O)cc(-c4ccc(CN[C@@H](C)C(C)C)cc4)cc23)CC1` [Example 161, 5-[4-({[(1S)-1,2-dimethylpropyl]amino}methyl)phenyl]-3-[1-(ethylsulfonyl)-4-piperidinyl]-1H-indole-7-carboxamide trifluoroacetate], the IC50 was no more than 10 µM in test [1] and no more than 1.5 µM in test [2].

Take `CCS(=O)(=O)N1CCC(c2c[nH]c3c(C(N)=O)cc(-c4cccc(CN[C@H](C)C(C)C)c4)cc23)CC1` [Example 162, 5-[3-({[(1R)-1,2-dimethylpropyl]amino}methyl)phenyl]-3-[1-(ethylsulfonyl)-4-piperidinyl]-1H-indole-7-carboxamide trifluoroacetate]: the IC50 in test [1] was no more than 10 µM; in test [2] it was no more than 1.5 µM.

Regarding `CCS(=O)(=O)N1CCC(c2c[nH]c3c(C(N)=O)cc(-c4cccc(N)n4)cc23)CC1` [Example 163, 5-(6-amino-2-pyridinyl)-3-[1-(ethylsulfonyl)-4-piperidinyl]-1H-indole-7-carboxamide trifluoroacetate], the values for the IC50 in test [1] and in test [2] were no more than 10 µM and no more than 1.5 µM, respectively.

For the compound `CCS(=O)(=O)N1CCC(c2c[nH]c3c(C(N)=O)cc(-c4ccc(N(C)C)cc4)cc23)CC1` [Example 165, 5-[4-(dimethylamino)phenyl]-3-[1-(ethylsulfonyl)-4-piperidinyl]-1H-indole-7-carboxamide], the IC50 in test [1] was no more than 10 µM; in test [2], greater than 1 µM.

Regarding `CCS(=O)(=O)N1CCC(c2c[nH]c3c(C(N)=O)cc(-c4cccc(N)c4)cc23)CC1` [Example 166, 5-(3-aminophenyl)-3-[1-(ethylsulfonyl)-4-piperidinyl]-1H-indole-7-carboxamide], the IC50 is no more than 10 µM in test [1] and no more than 1.5 µM in test [2].

On to `CCS(=O)(=O)N1CCC(c2c[nH]c3c(C(N)=O)cc(-c4ccc(CN5CCCC5C)s4)cc23)CC1` (stereo not shown) [Example 167, 3-[1-(ethylsulfonyl)-4-piperidinyl]-5-{5-[(2-methyl-1-pyrrolidinyl)methyl]-2-thienyl}-1H-indole-7-carboxamide], for which the results for the IC50 in test [1] and in test [2] were no more than 10 µM and no more than 1.5 µM, respectively.

With `CCNCc1ccc(-c2cc(C(N)=O)c3[nH]cc(C4CCN(S(=O)(=O)CC)CC4)c3c2)s1` [Example 168, 5-{5-[(ethylamino)methyl]-2-thienyl}-3-[1-(ethylsulfonyl)-4-piperidinyl]-1H-indole-7-carboxamide], the IC50 in test [1] was no more than 10 µM; in test [2], no more than 1.5 µM.

For the compound `CCS(=O)(=O)N1CCC(c2c[nH]c3c(C(N)=O)cc(-c4ccc(CNC(C)C)s4)cc23)CC1` [Example 169, 3-[1-(ethylsulfonyl)-4-piperidinyl]-5-(5-{[(1-methylethyl)amino]methyl}-2-thienyl)-1H-indole-7-carboxamide], the IC50 in test [1] was no more than 10 µM; in test [2], no more than 1.5 µM.

In the case of `CCS(=O)(=O)N1CCC(c2c[nH]c3c(C(N)=O)cc(-c4ccc(CNC5CC5)s4)cc23)CC1` [Example 170, 5-{5-[(cyclopropylamino)methyl]-2-thienyl}-3-[1-(ethylsulfonyl)-4-piperidinyl]-1H-indole-7-carboxamide], the IC50 in test [1] is no more than 10 µM; in test [2] it was no more than 1.5 µM.

As for `CCS(=O)(=O)N1CCC(c2c[nH]c3c(C(N)=O)cc(-c4ccc(CNCC(C)(C)C)s4)cc23)CC1` [Example 171, 5-(5-{[(2,2-dimethylpropyl)amino]methyl}-2-thienyl)-3-[1-(ethylsulfonyl)-4-piperidinyl]-1H-indole-7-carboxamide], the IC50 was no more than 10 µM in test [1] and no more than 1.5 µM in test [2].

Take `CCS(=O)(=O)N1CCC(c2c[nH]c3c(C(N)=O)cc(-c4ccc(CNCC5CC5)s4)cc23)CC1` [Example 172, 5-(5-{[(cyclopropylmethyl)amino]methyl}-2-thienyl)-3-[1-(ethylsulfonyl)-4-piperidinyl]-1H-indole-7-carboxamide]: the IC50 in test [1] is no more than 10 µM; in test [2] it was no more than 1.5 µM.

Regarding `CCS(=O)(=O)N1CCC(c2c[nH]c3c(C(N)=O)cc(-c4cncc(CNCCOC)c4)cc23)CC1` [Example 174, 3-[1-(ethylsulfonyl)-4-piperidinyl]-5-[5-({[2-(methyloxy)ethyl]amino}methyl)-3-pyridinyl]-1H-indole-7-carboxamide], in test [1], the IC50 is no more than 10 µM. For the same compound, the inhibition at 0.3 µM in test [2] was in the range of 0 to 60%.

Consider `CCS(=O)(=O)N1CCC(c2c[nH]c3c(C(N)=O)cc(-c4cncc(CNCCCOC)c4)cc23)CC1` [Example 175, 3-[1-(ethylsulfonyl)-4-piperidinyl]-5-[5-({[3-(methyloxy)propyl]amino}methyl)-3-pyridinyl]-1H-indole-7-carboxamide], for which the IC50 in test [1] is no more than 10 µM. Also, in test [2], the inhibition at 0.3 µM lay in the range of 0 to 60%.

With `CCS(=O)(=O)N1CCC(c2c[nH]c3c(C(N)=O)cc(-c4cncc(CN5CCOCC5)c4)cc23)CC1` [Example 176, 3-[1-(ethylsulfonyl)-4-piperidinyl]-5-[5-(4-morpholinylmethyl)-3-pyridinyl]-1H-indole-7-carboxamide], the IC50 in test [1] is no more than 10 µM. For the same compound, the inhibition at 0.3 µM in test [2] was in the range of 0 to 60%.

Regarding `CCNCc1cncc(-c2cc(C(N)=O)c3[nH]cc(C4CCN(S(=O)(=O)CC)CC4)c3c2)c1` [Example 177, 5-{5-[(ethylamino)methyl]-3-pyridinyl}-3-[1-(ethylsulfonyl)-4-piperidinyl]-1H-indole-7-carboxamide], in test [1], the IC50 is no more than 10 µM. Moreover, the inhibition at 0.3 µM in test [2] was 0 to 60%.

Regarding `CCS(=O)(=O)N1CCC(c2c[nH]c3c(C(N)=O)cc(-c4cncc(CN(C)C)c4)cc23)CC1` [Example 178, 5-{5-[(dimethylamino)methyl]-3-pyridinyl}-3-[1-(ethylsulfonyl)-4-piperidinyl]-1H-indole-7-carboxamide], the IC50 in test [1] is no more than 10 µM. Further, the inhibition at 0.3 µM in test [2] lay within 0 to 60%.
